Tests used:
HIV (strain NL4-3) = assay type: cell-based
Excerpt: Controls used water in place of peptide.

tat = settings: literature, Green et al; cited from earlier work
[1] = test system: variant of TAR which does not bind tat; experiment: RNA gel mobility shift assay, binding to non-functional TAR variant (specificity); set-up: species or system HIV; settings: relative to binding to the non-functional TAR variant; result in words
Experimental: (§1) TAR-binding affinity of the oligopeptides relative to HIV tat(1-86) and relative to tat fragments representing the tat basic domain, was evaluated by RNA gel mobility shift assay using as ligand a truncated functional form of TAR RNA having the sequence shown below.
Synthesis of the TAR fragment and its variant analogue was accomplished as described by Roy et al. in Genes and Development, 1990, 4:1365. The TAR-binding assay was also performed in the manner reported by Roy et al., supra, which is incorporated herein by reference.

yeast tRNA = experiment: TAR binding compared with yeast tRNA binding (specificity); settings: result in words
[2] = test system: truncated functional form of TAR RNA; experiment: RNA gel mobility shift assay, TAR binding; set-up: species or system HIV; settings: judged relative to tat(1-86) and the oligopeptide representing the tat basic domain; result in words
Experimental: This assay generally involves the incubation of a selected oligopeptide with gel-purified, radio-labelled TAR RNA, or tat-binding fragment of TAR RNA, that has been produced either by direct synthesis or through transcription of a corresponding DNA template. Samples are loaded onto non-denaturing polyacrylamide gel and subjected to electrophoresis, and then migration of labelled RNA through the gel is visualized on gel-exposed, X-ray film. Oligopeptides which bind TAR are identified in this assay by their characteristic, retarded migration on the gel, relative to TAR RNA to which no oligopeptide has bound. In this mobility shift assay, oligopeptides having an "enhanced" affinity for binding TAR RNA will resolve on the gel as bands which, in addition to displaying the retarded migration pattern characteristic of TAR-binding oligopeptides, will also appear with greater intensity and/or size than a band containing TAR RNA bound to tat (1-86).
as §1
Synthesis of the TAR fragment and its variant analogue was accomplished as described by Roy et al. in Genes and Development, 1990, 4:1365. […]

Which “effects on HIV inhibition” value (HIV (strain NL4-3); 5µM pretreatment of HuT78 cells, 7 or 14 days, result in words) does the source give for `CC(=O)N[C@H](CCCNC(=N)N)C(=O)N[C@H](CCCCN)C(=O)N[C@H](CCCCN)C(=O)N[C@H](CCCNC(=N)N)C(=O)N[C@H](CCCNC(=N)N)C(=O)N[C@H](CCC(N)=O)C(=O)N[C@H](CCCNC(=N)N)C(=O)N[C@H](CCCNC(=N)N)C(=O)N[C@H](CCCNC(=N)N)C(N)=O` [peptide 4G] here?
Its value is “positive effects on HIV inhibition”.

With Arg-Lys-Lys-Arg-Arg-Gln-Arg-Arg-Arg as the compound, how does the tat antagonist activity (tat) read?
The tat antagonist activity was “Weak tat antagonist activity”.

For `CC(=O)N[C@H](CCCNC(=N)N)C(=O)N[C@H](CCCNC(=N)N)C(=O)N[C@H](CCCNC(=N)N)C(=O)N[C@H](CCCNC(=N)N)C(=O)N[C@H](CCCNC(=N)N)C(=O)N[C@H](CCCNC(=N)N)C(=O)N[C@H](CCCNC(=N)N)C(=O)N[C@H](CCCNC(=N)N)C(=O)N[C@H](CCCNC(=N)N)C(N)=O` [peptide 4C, acetyl-[D-Arg]9-NH2], which “specificity for binding to the functional TAR fragment” value [1] is on record?
Its value is “comparable to the wild type basic domain”.

What about the specificity of binding (yeast tRNA) of the same compound?
The specificity of binding was “confirmed”.

What about the “inhibition of viral replication, as measured by p24 assay” value (HIV (strain NL4-3); HuT78 cells pretreated with 5µM peptide for 7 or 14 days, 10µM after infection, p24 at four and seven days after infection) of the same compound?
The value was no less than 95%.

What about the formation of syncytia (HIV (strain NL4-3); visual inspection of infected HuT78 cells, same treatment as p24 assay) of the same compound?
The formation of syncytia was “completely inhibited”.

And the TAR-binding affinity [2]?
The TAR-binding affinity was “comparable to the basic domain of wild type tat”.
